# In ChEMBL document CHEMBL4325923, “Analogues of the Lignan Pinoresinol as Novel Lead Compounds for P-glycoprotein (P-gp) Inhibitors” (ACS Med Chem Lett, 2018):
# Activity calls are given as the source filed them. No cut-off for these calls is given here.
# Columns and labels:
# [1] = biological target: T1, ATP-dependent translocase ABCB1 (Homo sapiens, UniProt P08183); assay: (§1) Inhibition of P-gp-mediated doxorubicin efflux in human Lucena 1 cells assessed as ratio of doxorubicin fluorescence intensity in presence of compound to doxorubicin fluorescence intensity in absence of compound at 25 uM preincubated for 1 hr followed by doxorubicin addition measured after 1 hr by flow cytometry; assay type: cell-based
# [2] = biological target: T1, ATP-dependent translocase ABCB1; assay: as §1, with “6.25” for “25”; assay type: cell-based
# [3] = biological target: T1, ATP-dependent translocase ABCB1; assay: as §1, with “1.56” for “25”; assay type: cell-based
# [4] = biological target: T1, ATP-dependent translocase ABCB1; assay: Inhibition of P-gp-mediated doxorubicin efflux in human Lucena 1 cells preincubated for 1 hr followed by doxorubicin addition measured after 1 hr by flow cytometry; assay type: cell-based
# [5] = test system: K562; assay: Inhibition of doxorubicin efflux in human K562 cells at 25 uM preincubated for 1 hr followed by doxorubicin addition measured after 1 hr by flow cytometry; assay type: functional, cell-based
# [6] = biological target: T1, ATP-dependent translocase ABCB1; assay: Inhibition of P-gp-mediated Rho-123 efflux in human Lucena 1 cells at […] preincubated for 1 hr followed by Rho-123 addition measured after 1 hr by flow cytometry; assay type: cell-based
# [7] = biological target: T1, ATP-dependent translocase ABCB1; assay: as §1, with “0.78” for “25”; assay type: cell-based
# [8] = biological target: T1, ATP-dependent translocase ABCB1; assay: Inhibition of P-gp-mediated Rho-123 efflux in human Lucena 1 cells at 50 uM preincubated for 1 hr followed by Rho-123 addition measured after 1 hr by flow cytometry; assay type: cell-based
# [9] = test system: K562; assay type: functional, cell-based; conditions: Homo sapiens, 3.12 uM
# [10] = test system: PBMC; assay: Cytotoxicity against human PBMC at 25 uM after 48 hrs by MTT assay relative to control; assay type: cell-based
# [11] = test system: PBMC; assay: Cytotoxicity against human PBMC at 6.25 uM after 48 hrs by MTT assay; assay type: cell-based
# [12] = biological target: P-gp (ABCB1) (Homo sapiens, UniProt P08183); assay: Stimulation of P-gp (unknown origin) ATPase activity at 10 uM relative to control; conditions: read-out: Activity
# [13] = biological target: T1, ATP-dependent translocase ABCB1; assay: as §1, with “0.39” for “25”; assay type: cell-based
# [14] = test system: K562; assay: Potentiation of doxorubicin-induced cytotoxicity in human K562 cells assessed as decrease in doxorubicin IC50 at 1.56 uM after 48 hrs by MTT assay; assay type: functional, cell-based
# T1 sequence (P08183 whole entry): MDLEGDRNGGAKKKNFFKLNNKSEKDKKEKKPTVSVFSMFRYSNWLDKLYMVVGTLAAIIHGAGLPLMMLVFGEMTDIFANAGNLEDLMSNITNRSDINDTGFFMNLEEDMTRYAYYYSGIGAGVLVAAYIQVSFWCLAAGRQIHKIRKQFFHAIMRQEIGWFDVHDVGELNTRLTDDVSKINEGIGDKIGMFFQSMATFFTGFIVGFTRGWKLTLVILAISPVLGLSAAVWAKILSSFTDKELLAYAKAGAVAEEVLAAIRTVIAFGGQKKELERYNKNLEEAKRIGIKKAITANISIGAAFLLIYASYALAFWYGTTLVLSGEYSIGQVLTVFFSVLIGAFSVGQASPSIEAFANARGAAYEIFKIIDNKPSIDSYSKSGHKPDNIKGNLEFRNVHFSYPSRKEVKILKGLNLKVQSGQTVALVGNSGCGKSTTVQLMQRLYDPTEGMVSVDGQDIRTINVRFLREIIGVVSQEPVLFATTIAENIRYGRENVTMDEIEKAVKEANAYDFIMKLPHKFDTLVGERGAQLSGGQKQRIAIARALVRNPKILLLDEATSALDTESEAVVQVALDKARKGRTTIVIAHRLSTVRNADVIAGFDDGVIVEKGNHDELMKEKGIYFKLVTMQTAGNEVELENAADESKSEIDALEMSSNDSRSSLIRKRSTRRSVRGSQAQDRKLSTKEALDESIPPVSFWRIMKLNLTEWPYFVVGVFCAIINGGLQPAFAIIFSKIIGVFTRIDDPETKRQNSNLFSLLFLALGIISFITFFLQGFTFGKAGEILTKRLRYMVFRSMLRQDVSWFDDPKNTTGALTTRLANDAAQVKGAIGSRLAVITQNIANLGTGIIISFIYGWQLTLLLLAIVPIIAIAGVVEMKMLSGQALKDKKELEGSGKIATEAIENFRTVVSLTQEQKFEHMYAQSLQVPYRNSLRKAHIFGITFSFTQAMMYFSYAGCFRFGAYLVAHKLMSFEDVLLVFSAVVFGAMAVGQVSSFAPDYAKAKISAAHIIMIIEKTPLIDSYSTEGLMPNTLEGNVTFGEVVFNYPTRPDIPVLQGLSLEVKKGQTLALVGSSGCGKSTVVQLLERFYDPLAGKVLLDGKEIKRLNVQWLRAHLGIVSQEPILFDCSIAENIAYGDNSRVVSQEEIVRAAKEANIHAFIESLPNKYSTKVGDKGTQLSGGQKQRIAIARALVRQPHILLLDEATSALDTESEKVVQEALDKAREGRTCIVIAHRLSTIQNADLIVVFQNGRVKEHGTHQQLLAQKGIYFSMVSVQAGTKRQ
# P-gp (ABCB1), sequence (P08183 whole entry): as above
Compound,Ratio [1],Ratio [2],inhibition (INH) [4],inhibition [5],also measured
CC/C(=C(/CC)c1ccc(OCCCCOC(C)=O)cc1)c1ccc(OCCCCOC(C)=O)cc1,1.18,1.09,Dose-dependent effect,inactive,Ratio [3]: 1.01
CC/C(=C(/CC)c1ccc(OCCO)cc1)c1ccc(OCCO)cc1,1.16,1.08,Dose-dependent effect,inactive,–
CC/C(=C(\c1ccccc1)c1ccc(OCCN(C)C)cc1)c1ccccc1 [TAMOXIFEN],1.13,–,–,–,INH [6]: Active
CC/C(=C(/CC)c1ccc(OCCCO)cc1)c1ccc(OCCCO)cc1,1.23,1.09,Dose-dependent effect,inactive,Ratio [3]: 1.05; Ratio [7]: 0.98; inhibition (INH) [8]: Active; Activity [9]: inactive; Activity [10]: 34.67%; Activity [11]: Non-Toxic
CC/C(=C(/CC)c1ccc(OC)cc1)c1ccc(OC)cc1,1.19,1.09,Dose-dependent effect,inactive,–
CC/C(=C(/CC)c1ccc(OCCOS(=O)(=O)[O-])cc1)c1ccc(OCCOS(=O)(=O)[O-])cc1.[Na+].[Na+],1.04,–,–,–,–
CC/C(=C(/CC)c1ccc(OCCCOC(C)=O)cc1)c1ccc(OCCCOC(C)=O)cc1,1.21,1.06,Dose-dependent effect,inactive,Ratio [3]: 1.02
CC/C(=C(/CC)c1ccc(OCCOC(C)=O)cc1)c1ccc(OCCOC(C)=O)cc1,1.21,1.12,Dose-dependent effect,inactive,Ratio [3]: 1.03
CC/C(=C(/CC)c1ccc(OCCCS(=O)(=O)[O-])cc1)c1ccc(OCCCS(=O)(=O)[O-])cc1.[Na+].[Na+],1.03,–,–,–,–
CC/C(=C(/CC)c1ccc(S(=O)(=O)[O-])cc1)c1ccc(S(=O)(=O)[O-])cc1.[Na+].[Na+],0.99,–,–,–,–
CC/C(=C(/CC)c1ccc(OCCCCS(=O)(=O)[O-])cc1)c1ccc(OCCCCS(=O)(=O)[O-])cc1.[Na+].[Na+],0.95,–,–,–,–
CC/C(=C(/CC)c1ccc(OCCCCO)cc1)c1ccc(OCCCCO)cc1,1.32,1.08,Dose-dependent effect,inactive,Ratio [3]: 1.1; Ratio [7]: 0.99; Ratio [13]: 1; INH [6]: Active; Activity [14]: inactive; Activity [10]: 41%; Activity [11]: Non-Toxic

# The next lines start with results.
Ratio [1],Ratio [2],inhibition (INH) [4],Compound,inhibition [5],also measured
0.8,–,–,Cc1c(-c2ccc(O)cc2)[nH]c2ccc(O)cc12,–,–
0.72,–,–,Cc1c(-c2ccc(O)c(O)c2)[nH]c2ccc(O)cc12,–,–
0.9,–,–,COc1ccc2[nH]c(-c3ccc(OC)c(OC)c3)c(C)c2c1,–,–
0.96,–,–,COc1cc([C@@H]2CC(O)=Nc3c2cnn3Cc2cccs2)ccc1O,–,–
1.01,–,–,Cc1c(-c2ccc(O)c(O)c2)[nH]c2ccc(OCCO)cc12,–,–
1.06,1.04,–,CC/C(=C(/CC)c1ccc(O)cc1)c1ccc(O)cc1 [DIETHYLSTILBESTROL],inactive,activity at 10 µM [12]: 45%
0.75,–,–,Cc1c(-c2ccc(O)c(O)c2)n(C)c2ccc(O)cc12,–,–
1.11,–,–,COc1ccc(-n2nc(C)c3c2NC(=O)C[C@@H]3c2ccc(O)c(OC)c2)cc1,–,–
